The test system of experiment [1] is DA reuptake in rat brain synaptosomes. In words: 3H-DA reuptake by rat brain synaptosomes. The experiment is classed as biochemical. The conditions noted are these: 3H-DA 10 nM, rat brain synaptosomes; read-out: DA inhibition rate % IC50. The text has this: At present, it is believed that absolute or relative deficiencies of the central monoamine neurotransmitters 5-hydroxytryptamine (5-HT), norepinephrine (NA) and dopamine (DA) are closely related to depression and anxiety. This experiment was designed to evaluate, by the method of in vitro monoamine reuptake, the inhibitory effect of two samples of tested compound I-5 and compound M2 on reuptake of 5-HT, NA and DA in rat brain synaptosomes. The preparation of in vitro SD rat brain synaptosomes and isotopic tracer method were employed to investigate IC50 of inhibition of monoamine reuptake of DA, 5-HT and NA in two tested samples, in order to explore the possible mechanism of antidepressant and anxiolytic effects of compound I-5 and compound M2.
Synaptosomes were separated using methods in literature to prepare brain synaptosomes. SD rats were rapidly decapitated with a small animal decapitator. After decapitation, brains were taken out quickly and precooled in an ice-water mixture, and the pia mater and vascular tissue were removed. Brain tissue was taken out. 10 times volume (ml/g) of 10 mM Tris HCl buffer (containing 0.32 M sucrose, pH 7.4) was added, an ultrasonic cell pulverizer was used for homogenization (maintaining at a low temperature), and the brain tissue was homogenized and centrifuged for 10 min (4° C., 1,000 g). After balanced centrifugation (1500 g, 10 min) at 4° C., precipitate was discarded, then supernatant was taken, and centrifugation (20000 g) was performed again for 30 min. The supernatant was discarded and the precipitate, i.e. crude extract of synaptic corpuscles, was retained. […] The precipitate was suspended in a small amount of Kreb's buffer (NaCl 118 mM, KCl 4.7 mM, CaCl2) 2.5 mM, MgSO4 1.2 mM, KH2PO4 1.2 mM, NaHCO325 mM and Glucose 11.1 mM, pH 7.2-7.4), BCA method was used for protein quantification, and the operation steps were as described in the description. […]
(§1) The percentage inhibition of isotope ligand binding by each compound was calculated according to the following equation: […]

Experiment [2] deals with NA reuptake in rat brain synaptosomes. In words: 3H-NA reuptake by rat brain synaptosomes. The conditions noted are these: 3H-NA 10 nM, rat brain synaptosomes; read-out: NA inhibition rate % IC50. The experiment is classed as biochemical.
Source text: At present, it is believed that absolute or relative deficiencies of the central monoamine neurotransmitters 5-hydroxytryptamine (5-HT), norepinephrine (NA) and dopamine (DA) are closely related to depression and anxiety.
Synaptosomes were separated using methods in literature to prepare brain synaptosomes. SD rats were rapidly decapitated with a small animal decapitator. After decapitation, brains were taken out quickly and precooled in an ice-water mixture, and the pia mater and vascular tissue were removed. Brain tissue was taken out. 10 times volume (ml/g) of 10 mM Tris HCl buffer (containing 0.32 M sucrose, pH 7.4) was added, an ultrasonic cell pulverizer was used for homogenization (maintaining at a low temperature), and the brain tissue was homogenized and centrifuged for 10 min (4° C., 1,000 g). After balanced centrifugation (1500 g, 10 min) at 4° C., precipitate was discarded, then supernatant was taken, and centrifugation (20000 g) was performed again for 30 min. The supernatant was discarded and the precipitate, i.e. crude extract of synaptic corpuscles, was retained. The precipitate was further suspended in 0.32 M cold sucrose solution and then carefully laid on 1.2 M and 0.8 M (10 ml each) cold sucrose gradient solutions which had been laid sequentially on the bottom of the tube, followed by balanced centrifugation (38000 g) at 4 °C for 60 min. A suspension band at the 0.8-1.2 M sucrose interface was carefully collected with a puncture needle, which was placed in 10 ml of 0.32 M cold sucrose solution and mixed well, and equilibrium centrifuged (20000 g) at 4 °C for 30 min. The precipitate was refined brain synaptosomes. […]
as §1

The subject of experiment [3] is SD rats. In words: Vogel drinking conflict experiment in rats, single administration. The experiment is classed as in vivo. Conditions: for Number of times of drinking water: 10 mg/kg i.g., 30 min after single dose, punishment stage 3 min, n = 8; for anxiolytic activity in drinking conflict experiment vs solvent control group: single intragastric administration of 20 mg/kg. The protocol: 75 male SD rats, with the body weight of 180-220 g, were fed adaptively for 1 week, water deprived for 24 h for training period test. The animals screened to be qualified were randomly divided into 7 groups (a solvent control group, estazolam group, compound M2 group, compound II-3 group, compound II-4 group, compound II-5 group and compound II-10 group) according to their body weight, with 8 rats in each group. […] results of 3.1: the positive drug estazolam was administered intragastrically at 1.24 mg/kg; and the solvent control group was gavaged with an equal volume of solvent. The grouped animals were continued to be water deprived for 24 h and were given a single dose, and tested in a punishment experiment 30 min after the single dose.
The experiment was carried out in two stages. The first stage is a training stage, in which 24 h after water deprivation, animals were placed in an operation box separately, and were allowed to fully explore until they found the bottle mouth and started to lick water (with an intensity of electric shock being 0 mA), a counter automatically recorded the number of licks within 3 min, and the animals that licked water less than 300 times were eliminated.
Observation index: the number of water licks of rats in the punishment stage.
Data was expressed as mean±standard (mean±SD) difference, and statistics of data differences were made by one-way analysis of variance (ANOVA) or nonparametric test, and differences between groups were determined by P<0.05.

The structures appear in SMILES notation.

Turning to `CC(C)CNC(=O)/C=C/c1cc2c(c(C(F)(F)F)c1)OCO2` [Compound I-5], the IC50 in experiment [1] was determined as 26 ± 1.33 nM; in experiment [2], 17.2 ± 1.59 nM. In experiment [3], the “Number of times of drinking water” value came out at 478.02 ± 106.32. Further, the “anxiolytic activity in drinking conflict experiment vs solvent control group” value in experiment [3] was “significant anxiolytic activity”.

In the case of `NC(=O)/C=C/c1cc2c(c(C(F)(F)F)c1)OCO2` [Compound M2], the IC50 in experiment [1] was found to be 37.3 ± 1.97 nM. Further, in experiment [2], the IC50 was 23.5 ± 3.56 nM. In experiment [3], the “Number of times of drinking water” value is on record as 527.26 ± 143.66 and the “anxiolytic activity in drinking conflict experiment vs solvent control group” value is listed as “significant anxiolytic activity”.

Usually IC50 stands for the concentration at which inhibition is half-maximal.

Source of the values: patent publication US20240217946A1, “ANTIDEPRESSANT AND ANXIOLYTIC SUBSTITUTED CINNAMAMIDE COMPOUND” (TASLY PHARMACEUTICAL GROUP CO., LTD., priority 2021, published 2024).
